Marks after values point to notes of the source that are not given here.
Legend:
[1] = test system: poly-(ADP-ribose)-polymerase; experiment: PARP activity during myocardium ischemia with arterial hypertension; assay type: in vivo, rats; conditions: no unit in table (b49 gives the norm in pkMole/mg of protein)
Description: (§1) The apoptosis activity was judged by poly-(ADP-ribose)-polymerase (key ferment of apoptotic cell loss), which was determined using Amersham Pharmacia Biotech test sets. The extent of necrotic cardiomyocites damage was estimated according to the quantity of myoglobin entry in the blood, in which the myoglobin content was measured spectrophotometrically.
Arterial hypertensia of normotensive rats was reproduced by imposing the ligature in the form of a titanic heliciform ring on a site of an aorta with the arteries of kidneys departing from it. The reached narrowing of an aortic lumen was 2/3 in diameter. Animals were operated on under anesthetic, in which their abdominal cavity was opened. The arterial pressure was measured by use of a gauge with a rubber cuff on the animal's tail. A signal from the gauge was recorded on a Mingograph EMT 118. On the 30th day after the operation, all of the animals were divided into two groups: in the first group the animal's left descending interventricular artery at its top third was ligated - the hard ischemia of a myocardium, and in the second group, an irreversible bilateral occlusion of the general carotids was reproduced with a silk thread (see example 9). […] Both groups of animals were euthanased on the 10th day after the operation. […]

myocardium = experiment: Myocardium ischemia (coronary artery ligation) with arterial hypertension: arrhythmia, ischemia and necrosis zones, myoglobin; assay type: in vivo, rats; conditions: for Arrhythmia duration / Ischemia zone, % of myocardium mass / Necrosis zone, % from ischemia zone / Necrosis zone, % from myocardium mass: 6 hours after bandaging
Description: as §1
Arterial hypertensia of normotensive rats was reproduced by imposing the ligature in the form of a titanic heliciform ring on a site of an aorta with the arteries of kidneys departing from it. The reached narrowing of an aortic lumen was 2/3 in diameter. Animals were operated on under anesthetic, in which their abdominal cavity was opened. The arterial pressure was measured by use of a gauge with a rubber cuff on the animal's tail. A signal from the gauge was recorded on a Mingograph EMT 118. On the 30th day after the operation, all of the animals were divided into two groups: in the first group the animal's left descending interventricular artery at its top third was ligated - the hard ischemia of a myocardium, and in the second group, an irreversible bilateral occlusion of the general carotids was reproduced with a silk thread (see example 9). […] Both groups of animals were euthanased on the 10th day after the operation. All of the investigated connections were introduced intravenously (this method of introduction was chosen to reflect the maximum effect of the medication) within 15 minutes after coronary artery bandaging. The developed means was also introduced intravenously in the form of an infusion in 5% glucose, or in tablet form with an oral administration, or in a kind of suppository.

[2] = test system: poly-(ADP-ribose)-polymerase; experiment: PARP activity in myocardium and brain at acute hypobaric hypoxia with hypercapnia; assay type: in vivo
Description: as §1
(§2) Example 7. Acute hypobaric anoxia (as one of the most adequate methods of hypoxia study) in combination with hypercapnia was modeled by "lifting" low-resistant to hypoxia animals to a critical altitude of 11,500 m at a speed of 1,200 m/min. If at this altitude for more than 10 minutes, hypoxia modeling stopped, and the animals were considered conditionally "high-resistant", and animals that lived less than 10 minutes were considered conditionally "low-resistant". In the present study, only animals with low-resistance to hypoxia were used. During the second experiment of "lifting" animals in order to simulate hypobaric anoxia, in combination with hypercapnia, these parameters were recorded: loss of pose time (LPT), lifetime - time from the end of "lifting" until respiratory standstill or the first atonal inhalation occurrence, restitution time (RT) - from a respiratory standstill until active pose restoration after descending the animal. The hypoxia stability factor was calculated as a ratio of the duration to the restitution time, an increase of which means the growth of the organism's resistance to the occurrence of extreme oxygen deprivation.
(§3) The studied substances were injected intravenously (method that reflects the maximum effect of the medication) 15 minutes prior to the experiment. The designed medication was also injected intravenously in the form of an infusion or pills that were administered orally or a suppository.

[3] = test system: low-resistant to hypoxia animals; experiment: Acute hypobaric anoxia in combination with hypercapnia (lifting to 11,500 m): lifetime, loss of pose time, restitution time, stability factor; assay type: in vivo; conditions: for Stability factor: ratio of duration to restitution time
Description: as §2, §3

[4] = 100 mg/kg intravenously within 15 minutes after coronary artery bandaging
[5] = 50 mg/kg intravenously 15 minutes prior to the experiment
[6] = 100 mg/kg intravenously 15 minutes prior to the experiment
[7] = 500 mg/kg intravenously 15 minutes prior to the experiment
[8] = 75 mg/kg intravenously within 15 minutes after coronary artery bandaging
[9] = 1.0 mg/kg intravenously 15 minutes prior to the experiment
[10] = 10.0 mg/kg intravenously 15 minutes prior to the experiment

SMILES: CCc1nc(C)ccc1O [3-hydroxy-6-methyl-2-ethylpyridine]
- PARP activity [1, 4]: 0,256± 0,032
- Arrhythmia duration (myocardium; [4]): 58 ± 9 min
- Ischemia zone, % of myocardium mass (myocardium; [4]): 39±3 % of myocardium mass
- Necrosis zone, % from ischemia zone (myocardium; [4]): 67±3 % from ischemia zone
- Necrosis zone, % from myocardium mass (myocardium; [4]): 26±9 % from myocardium mass
- Myoglobin content after 8 hours (myocardium; [4]): 127±12 mcg/g dry solid matter

SMILES: CCc1nc(C)ccc1O.O=C(O)CCC(=O)O [3-oxy-3-methyl-6-oxypyridine succinate]
- PARP activity, % of control brain [2, 5]: 312±29 % of control
- PARP activity, % of control myocardium [2, 5]: 204±21 % of control
- PARP activity, % of control brain [2, 6]: 317±21 % of control
- PARP activity, % of control myocardium [2, 6]: 208±29 % of control
- PARP activity, % of control brain [2, 7]: 302±32 % of control
- PARP activity, % of control myocardium [2, 7]: 202±19 % of control
- Duration [3, 5]: 778 ± 107 s
- Loss of Pose Time [3, 5]: 136 ± 22 s
- Restitution time [3, 5]: 680 ± 69 s
- Stability factor [3, 5]: 1.14±0.12
- Duration [3, 6]: 707 ± 145 s
- Loss of Pose Time [3, 6]: 156 ± 29 s
- Restitution time [3, 6]: 642 ± 69 s
- Stability factor [3, 6]: 1.10±0.13
- Duration [3, 7]: 784 ± 107 s
- Loss of Pose Time [3, 7]: 136 ± 39 s
- Restitution time [3, 7]: 690 ± 83 s
- Stability factor [3, 7]: 1.14±0.10

SMILES: C[N+](C)(C)C[C@H](O)CC(=O)[O-] [L-carnitine]
- PARP activity [1, 8]: 0,406± 0,030
- Arrhythmia duration (myocardium; [8]): 68 ± 8 min
- Ischemia zone, % of myocardium mass (myocardium; [8]): 40±3 % of myocardium mass
- Necrosis zone, % from ischemia zone (myocardium; [8]): 70±5 % from ischemia zone
- Necrosis zone, % from myocardium mass (myocardium; [8]): 28±9 % from myocardium mass
- Myoglobin content after 8 hours (myocardium; [8]): 132±10 mcg/g dry solid matter

SMILES: O=C([O-])CCCO.[Li+] [Lithium oxybutyrate]
- PARP activity, % of control brain [2, 6]: 300±82 % of control
- PARP activity, % of control myocardium [2, 6]: 200±33 % of control
- Duration [3, 6]: 1345 ± 89 s
- Loss of Pose Time [3, 6]: 436+90** sec
- Restitution time [3, 6]: 885 ± 82 s
- Stability factor [3, 6]: 1.4±0.2

SMILES: NC(=O)c1ccc[n+]([C@@H]2O[C@H](COP(=O)([O-])OP(=O)(O)OC[C@H]3O[C@@H](n4cnc5c(N)ncnc54)[C@H](O)[C@@H]3O)[C@@H](O)[C@H]2O)c1 [NAD, nicotine-amide-adenine-dinucleotide]
- PARP activity, % of control myocardium [2, 9]: 100±29 % of control
- PARP activity, % of control myocardium [2, 10]: 103±24 % of control
- Duration [3, 9]: 2034 ± 234 s
- Loss of Pose Time [3, 9]: 936 ± 79 s
- Restitution time [3, 9]: 1042 ± 44 s
- Stability factor [3, 9]: 1.95±0.25
- Duration [3, 10]: 2077 ± 109 s
- Loss of Pose Time [3, 10]: 1036 ± 91 s
- Restitution time [3, 10]: 1000 ± 82 s
- Stability factor [3, 10]: 2.08±0.22

SMILES: NC(=S)N=C(N)N [hutimine]
- PARP activity, % of control brain [2, 6]: 290±83 % of control
- PARP activity, % of control myocardium [2, 6]: 212±23 % of control
- Duration [3, 6]: 986 ± 87 s
- Loss of Pose Time [3, 6]: 186 ± 32 s
- Restitution time [3, 6]: 685 ± 82 s
- Stability factor [3, 6]: 1.45±0.12

SMILES: OC[C@H]1O[C@@H](n2cnc3c(O)ncnc32)[C@H](O)[C@@H]1O [inosine]
- PARP activity, % of control brain [2, 6]: 242±24 % of control
- PARP activity, % of control myocardium [2, 6]: 192±23 % of control
- Duration [3, 6]: 754 ± 30 s
- Loss of Pose Time [3, 6]: 186 ± 39 s
- Restitution time [3, 6]: 680 ± 69 s
- Stability factor [3, 6]: 1.16±0.16

SMILES: O=C(O)CCC(=O)O [succinic acid]
- PARP activity, % of control brain [2, 6]: 325±20 % of control
- PARP activity, % of control myocardium [2, 6]: 225±22 % of control
- Duration [3, 6]: 747 ± 90 s
- Loss of Pose Time [3, 6]: 121 ± 34 s
- Restitution time [3, 6]: 1042 ± 69 s
- Stability factor [3, 6]: 1.0±0.2

Reference: patent EP1878431B1, “MEDICINAL AGENT FOR PREVENTING PROGRESSION OF APOPTOTIC AND JUGULATING NECROTIC CHANGES IN THE ORGANISM TISSUES” (Obschestvo S Ogranichennoi Otvetstvennostyu …, priority 2005, dated 2006)
